Target: T1, GBA2 (Homo sapiens, UniProt Q9HCG7)
T1 sequence (Q9HCG7 1-927): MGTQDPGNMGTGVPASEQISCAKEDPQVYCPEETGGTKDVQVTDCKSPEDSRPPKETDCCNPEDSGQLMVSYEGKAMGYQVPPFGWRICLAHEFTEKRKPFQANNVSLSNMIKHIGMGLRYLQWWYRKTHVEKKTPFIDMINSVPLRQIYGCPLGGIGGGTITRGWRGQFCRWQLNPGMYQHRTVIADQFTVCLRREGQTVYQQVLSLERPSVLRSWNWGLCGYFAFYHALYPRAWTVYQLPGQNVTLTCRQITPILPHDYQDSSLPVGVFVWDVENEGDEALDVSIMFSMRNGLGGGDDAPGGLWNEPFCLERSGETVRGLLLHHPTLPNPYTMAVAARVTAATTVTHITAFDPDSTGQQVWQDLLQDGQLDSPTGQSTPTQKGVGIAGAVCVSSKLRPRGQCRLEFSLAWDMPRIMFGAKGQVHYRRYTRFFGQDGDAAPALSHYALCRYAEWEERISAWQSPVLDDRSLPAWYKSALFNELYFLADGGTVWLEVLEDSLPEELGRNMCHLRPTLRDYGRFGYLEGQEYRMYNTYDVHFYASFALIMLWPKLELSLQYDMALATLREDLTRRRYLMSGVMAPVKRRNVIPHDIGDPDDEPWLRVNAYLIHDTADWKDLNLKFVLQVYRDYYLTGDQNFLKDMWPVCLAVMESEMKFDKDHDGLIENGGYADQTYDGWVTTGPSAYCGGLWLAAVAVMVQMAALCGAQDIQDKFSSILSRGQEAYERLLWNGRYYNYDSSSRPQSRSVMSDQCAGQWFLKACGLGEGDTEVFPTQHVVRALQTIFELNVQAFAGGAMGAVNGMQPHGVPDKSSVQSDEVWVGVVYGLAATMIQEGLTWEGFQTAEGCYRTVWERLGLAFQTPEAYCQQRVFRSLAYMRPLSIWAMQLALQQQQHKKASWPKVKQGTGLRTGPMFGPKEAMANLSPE
Assay: Labelling kinetics of ABP 4 on GBA2 by SDS-PAGE
Type: biochemical
Parameters: expressed in transfected cells; host or cells: HEK293T GBA1/GBA2 KO (CRISPR/Cas9), GBA2 overexpressed
Conditions: HEK293T GBA1/2 KO, GBA2 OE lysate; pH 5.8; 37 °C
Protocol: To this end, lysates of HEK293T cells containing all β-glucosidases (endogenous GBA1 with overexpressed GBA2 and GBA3) were treated with ABPs 3, 4, 5 or 7, followed by protein separation by SDS-PAGE and fluorescence scanning of the wet gel slabs. […] In contrast, the β-D-Araf aziridine ABPs 3 and 4 selectively labelled GBA2 at a concentration of 100 nM, while Cy5 tagged ABP 5 did so at 500 nM. The GBA2 selectivity of β-D-Araf cyclitol aziridines 3, 4 and 5 was confirmed in a mixture of a lysate of overexpressed GBA2 cells spiked with 3 ng rhGBA1 (Fig. 2C and ESI Fig. S3 ^†). […] Therefore, only a combined inactivation rate constant (kinact) and binding constant (KI) ratio (kinact/KI) could be measured. […] Importantly, no labelling of GBA1 or GBA3 was detected under varying pH and time conditions (ESI Fig. S4-2 ^†).
Figure S4-1. […] A) Percentage of GBA2 labelling by ABP 4 (left graphs), data was quantified from three independent sets of fluorescent gels under the depicted conditions. […]
of inhibitors diluted in McIlvaine buffer (150 mM, pH 5.2) at 37 °C for 30 min or 3 h. […] After stopping the enzyme reaction with 200 μL 1 M NaOH-glycine (pH 10.3), 4-methylumbelliferone fluorescence was measured with a fluorimeter LS55 (Perkin Elmer, Waltham, MA, USA) with λEX 366 nm and λEM 445 nm. […]

## COc1ccc(C2=[N+]3C(=C(CCCCc4cn(CCCCCCCCN5[C@@H]6[C@H](CO)[C@@H](O)[C@H](O)[C@@H]65)nn4)c4ccc(-c5ccc(OC)cc5)n4[B-]3(F)F)C=C2)cc1 (stereo partly shown) [ABP 4]
  kinact/KI: 19200 M⁻¹ s⁻¹

Source: PMC11375437, “Selective labelling of GBA2 in cells with fluorescent β-D-arabinofuranosyl cyclitol aziridines” (Chemical Science, 2024)
